{"source": "paper PMC6394493", "about": "(Cancer Chemotherapy and Pharmacology, 2018)", "origin": "cited, not measured here", "system": "pS6", "set-up": "method as in PMID 25673697", "conditions": "patients with advanced solid tumors; cited from earlier work"}
{"compound": "CO[C@H]1C[C@@H]2CC[C@@H](C)[C@@](O)(O2)C(=O)C(=O)N2CCCC[C@H]2C(=O)O[C@H]([C@H](C)C[C@@H]2CC[C@@H](OCCO)[C@H](OC)C2)CC(=O)[C@H](C)/C=C(\\C)[C@@H](O)[C@@H](OC)C(=O)[C@H](C)C[C@H](C)/C=C/C=C/C=C/1C", "note": "[everolimus]", "values": [{"measurement": "changes in pS6 in skin biopsies", "value": "induce changes in pS6"}]}
